# Results as given in patent US7410955B2, “Therapeutic use of agonist ligands specific to G2A receptor” (Biosynergen, Inc., priority 2002, dated 2008).
# How the values were obtained:
# CLP-induced Sepsis model = test: CLP-induced sepsis model; type: in vivo, ICR mice
# Experimental: After ICR mice (25-30 g in body weight; MJ Ltd.) had been anesthetized with pentobarbital, right abdominal sites of the mice were dissected in a length of 1 cm to expose their cecum, and sites below the ileocecal valve were ligated. And then, after 4˜6 punctures had been created on the cecum with 21-gauge needle, the abdomen was sutured again to cause peritonitis, thereby inducing Sepsis.
# After the peritoneal cavity of mice had been exposed, it was washed with sterilized saline (2 ml). The resultant solution was diluted with HBSS (Sigma Chemical Co., USA) in a ratio of 1/1000, and then 10 μl of each diluted solution was spread on Trypticase Soy agar (BBL, Becton Dickinson Co., USA) plates. After overnight incubation at 37° C., colony forming unit (CFU) was measured.
# 7 mice were administered with 1-stearoyl LPC (Sigma Chemical Co., USA) dissolved in 1% BSA solution containing no fatty acid in an amount of 10 mg/kg by subcutaneous injection 2 and 14 hours after the CLP surgery, respectively (experimental group). The remaining 7 mice were administered with 1% BSA solution containing no fatty acid of the same amount as above in the same manner (control group). The numbers of intraperitoneal E. coli cells in the ICR mice of experimental and control groups were measured in accordance with Reference Example 3, 24 hours after the CLP surgery.
# Each 10 ICR mice were intraperitoneally administered with 1-stearoyl LPC (Sigma Chemical Co., USA) dissolved in 1% BSA solution containing no fatty acid in amounts of 5, 10, and 20 mg/kg, respectively, four times at intervals of 12 hours, 2 hours after the CLP surgery (experimental group-1, -2 and -3). The remaining 10 ICR mice were administered only with 1% BSA solution containing no fatty acid (control group). And then, the survival rates of mice in experimental- and control groups were investigated over the lapse of time.
# 10 mice for the experimental group were intraperitoneally administered with 1-stearoyl LPC (Sigma Chemical Co., USA) dissolved in 1% BSA solution containing no fatty acid in an amount of 10 mg/kg, four times at intervals of 12 hours, 10 hours after the CLP surgery. The remaining 10 mice for the control group were administered only with 1% BSA solution containing no fatty acid. Thereafter, the survival rates of ICR mice in experimental- and control groups were investigated over the lapse of time.
# CLP-induced Sepsis model mice were subcutaneously injected with SPC, instead of 1-stearoyl LPC, in dosages of 3 mg/kg and 30 mg/kg four times at intervals of 12 hours, 2 hours after the CLP surgery, respectively. The survival rates of mice were investigated.
# [1] = system: myeloperoxidase (MPO) in pulmonary tissues; test: LPS-induced (intratracheal) acute lung injury model, lung MPO activity; type: in vivo, ICR mice
# Experimental: The activity of myeloperoxidase (MPO), an indicator of neutrophils, in pulmonary tissues was determined according to the methods of Goldblum et al (J. Appl. physiol. 59: 1978, 1985) and Parey et al (J. Immunol. 160:1007, 1998). First, mice were sacrificed and pulmonary tissues were obtained therefrom. The tissues had been homogenized in potassium phosphate buffer, and centrifuged to obtain pellets. These pellets were sonicated in potassium phosphate buffer containing 0.5% hexadecyltrimethylammonium bromide (HTAB), and incubated at 60° C. for 120 min. After centrifugation, supernatants were obtained. 0.02 ml of supernatants was mixed with potassium phosphate buffer solution (0.18 ml) containing o-dianisidine dihydrochloride of 0.167 mg/ml and 0.0005% hydrogen peroxide. Accordingly, the absorbance of the mixture was determined at a wavelength of 460 nm.
# Mice were intratracheally administered with LPS to cause direct acute lung injury, thereby inducing acute respiratory distress syndrome.
# ICR mice (25-30 g in body weight; MJ Ltd.) were divided into five groups of 7 mice (Sham group, experimental groups-1, -2, -3 and a control group). Mice of each group were anesthetized with pentobarbital, their skins were dissected in a length of 1 cm to expose their bronchia. […]
smiles,measurement,setting,value
"CCCCCCCCCCCCCCCCCC(=O)OCC(O)COP(=O)([O-])OCC[N+](C)(C)C (centres unmarked) [1-stearoyl LPC, 1-stearoyl (18:0) lysophosphatidylcholine]",therapeutic effect (survival rate) when septicemia already developed,"CLP-induced Sepsis model; 10 mg/kg intraperitoneal, four times at intervals of 12 hours, starting 10 hours after CLP surgery",excellent therapeutic effect
same,number of intraperitoneal E. coli cells,"CLP-induced Sepsis model; 10 mg/kg subcutaneous, 2 and 14 hours after CLP surgery, 24 hours after surgery, P<0.01",remarkably decreased
same,survival rate,"CLP-induced Sepsis model; 5, 10 and 20 mg/kg intraperitoneal, four times at intervals of 12 hours, starting 2 hours after CLP surgery",much higher than that of the mice in control group
same,activity of MPO in pulmonary tissues,"[1]; 20 mg/kg subcutaneous (experimental group-3), p<0.01",the most excellent effects
same,activity of MPO in pulmonary tissues,"[1]; 5, 10 and 20 mg/kg subcutaneous, 2 and 14 hours after intratracheal LPS, 24 hours after LPS, vs control group",suppressed in a concentration-dependent manner
